For orientation: Kd means the free concentration of one partner at which half of the binding sites on the other are occupied at equilibrium, for simple one-to-one binding. By IC50 is commonly meant the concentration that inhibits the measured activity by half.

The target in one series is SH2 domain of STAT3. The note with it: cited from earlier work.
Series [1] deals with A549 tumor-bearing mice. The arrangement: method as in Zhang et al. [2012]. The conditions noted are these: repeated intravenous administration, ref Zhang et al. [2012]; cited from earlier work.
For series [2], the system named is STAT3 phosphorylation (Tyr705) in A549 cells. Put plainly: Phosphorylation inhibitory assay (western blotting). In kind it is cell-based, Human. The conditions noted are these: 24 h. The method, then: Several concentrations of FBNAF (final conc. 0, 0.2, 0.5 1.0, and 2.0 μM in medium containing 1% DMSO) were added to A549 cells, followed by incubation at 37℃ for 24 h. After harvesting, cells were lysed with Passive Lysis Buffer (Promega, Madison, WI, USA) containing 1% protease inhibitor and 1% phosphatase inhibitor. Cell protein was quantified using a Pierce BCA Protein Assay Kit (Thermo Scientific, Waltham, MA, USA). The samples (15 μg/lane) were loaded and separated on an sodium dodecyl sulfate (SDS) polyacrylamide gel. Western blotting was performed using primary antibodies against STAT3 (1:2000 dilution, #4904, Cell Signaling Technology, Danvers, MA, USA), pSTAT3(Tyr705) (1:2000 dilution, #9145, Cell Signaling Technology), and β-actin (1:5000 dilution, NB600-503, Novus Biologicals, Centennial, CO, USA), as well as anti-rabbit IgG HRP-conjugated antibody (1:3000 dilution, HAF008, R&D Systems, Minneapolis, MN, USA) as a secondary antibody. The western blot bands were detected using Chemi-Lumi One L (Nacalai Tesque) and analyzed using an Amersham imager 600 (Cytiva, Tokyo, Japan). To detect pSTAT3, Chemi-Lumi One Ultra (Nacalai Tesque) was used.
(In general: A western blot detects proteins with antibodies after separation by electrophoresis.)

The test system of a further series is RKO. The arrangement: method as in Wang et al. [2020]. The conditions noted are these: ref Wang et al. [2020]; cited from earlier work.
A further series relates to HCT116. Further details: method as in Wang et al. [2020]. The conditions noted are these: ref Wang et al. [2020]; cited from earlier work.
Series [3] can be described thus: In vitro stability in mouse plasma. The note with it: 3 h incubation in mouse plasma, 37℃, normal-phase TLC. Format: in vitro ADME, ddY mouse. The procedure:
[^18F]FBNAF (152 kBq, 20 μL) in 5% DMSO/PBS ( −) was incubated with ddY mouse plasma (180 μL) at 37℃ for 10, 60, 120, or 180 min. After protein removal using CH3CN (400 μL), the supernatant was filtered through a Cosmonice Filter W and analyzed by TLC (Rf = 0.4, ethyl acetate:hexane = 1:1), followed by radioactivity counting using a γ-counter (2480 Wizard^2, PerkinElmer Japan, Kanagawa, Japan; n = 3). The intact rate (%) was represented as the intact form relative to the total radioactivity.

Series [4] deals with A549 tumor-bearing mice. Put plainly: In vivo biodistribution. The arrangement: species or system BALB/c nude mice. The procedure: (§1) BALB/c nude mice (male, 4 weeks old) and ddY mice (male, 6 weeks old) were purchased from Japan SLC (Shizuoka, Japan) and given free access to food and water. All animal experiments were conducted according to Osaka Medical and Pharmaceutical University guidelines, and the study protocol was approved by the Institutional Experimental Animal Committee (Permission Number: 22-76, AP23-004). To prepare tumor-bearing mice, A549 cells (4 × 10^6 cells/mouse) suspended in culture medium (100 μL) were implanted subcutaneously into the right hind leg of each mouse. Animals with a tumor size of approximately 100 mm^3 (length × width^2 × 1/2) after inoculation with A549 cells were used for in vivo and ex vivo experiments.
(§2) [^18F]FBNAF (115-343 kBq, 100 μL) in 5% DMSO/PBS (−) was intravenously injected into mice. The animals were euthanized under isoflurane anesthesia at 10, 30, 60, and 120 min postinjection, and the tissues of interest were excised and weighed. Radioactivity was measured using a γ-counter. The accumulation of radioactivity was expressed as the percent injected dose per gram tissue (%ID/g) for all tissues excluding the stomach, in which accumulation was expressed as the percent injected dose per organ (%ID). For the blocking study, [^18F]FBNAF (115-360 kBq, 100 μL) in 5% DMSO/PBS (−) was intravenously coinjected with BP-1-102 (3.0 mg/kg, Selleck, Shanghai, China) into mice, and after 30 min, the accumulated radioactivity in the tumor, blood, and muscle were measured. Radioactivity was decay-corrected at the time of administration.

In series [5] the test system is A549 tumor-bearing mice. Put plainly: In vivo blocking study with coinjected BP-1-102. The arrangement: species or system BALB/c nude mice. The procedure: as §1, §2
A further series deals with T1, STAT3 (Homo sapiens, UniProt P40763).
T1 construct: sections prepared from the excised tumors of A549 tumor-bearing mice at 30 min postinjection of [^18F]FBNAF; from tissue; host or cells: A549 (human lung cancer) xenograft tumour excised from tumour-bearing mice
T1 sequence (P40763 whole entry): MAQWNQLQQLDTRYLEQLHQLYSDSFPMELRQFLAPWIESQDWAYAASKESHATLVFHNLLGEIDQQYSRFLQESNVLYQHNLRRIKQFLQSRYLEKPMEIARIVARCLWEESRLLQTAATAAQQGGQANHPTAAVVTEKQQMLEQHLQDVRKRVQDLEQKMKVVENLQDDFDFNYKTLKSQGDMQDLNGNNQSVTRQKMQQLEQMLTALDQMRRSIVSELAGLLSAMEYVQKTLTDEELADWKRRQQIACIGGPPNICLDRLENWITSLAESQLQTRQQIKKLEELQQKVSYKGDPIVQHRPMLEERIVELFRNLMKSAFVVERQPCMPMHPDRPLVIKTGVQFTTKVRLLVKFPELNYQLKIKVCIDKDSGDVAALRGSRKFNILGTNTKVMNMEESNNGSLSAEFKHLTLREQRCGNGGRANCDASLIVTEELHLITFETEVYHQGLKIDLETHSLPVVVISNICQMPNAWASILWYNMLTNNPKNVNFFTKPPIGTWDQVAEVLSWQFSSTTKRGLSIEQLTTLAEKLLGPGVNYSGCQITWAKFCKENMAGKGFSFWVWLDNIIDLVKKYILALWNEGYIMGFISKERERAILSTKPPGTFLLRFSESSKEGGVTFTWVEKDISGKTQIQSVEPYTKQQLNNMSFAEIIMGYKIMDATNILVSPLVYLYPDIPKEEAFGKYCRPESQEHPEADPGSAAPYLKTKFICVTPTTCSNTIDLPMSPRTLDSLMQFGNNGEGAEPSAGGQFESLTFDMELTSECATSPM
Put plainly: Ex vivo autoradiography and immunohistochemistry. Format: in vivo, mouse. The note with it: tumor sections, 30 min postinjection, A549 tumor-bearing mice. The method, then:
Tumors were excised 30 min after the intravenous injection of [^18F]FBNAF (3–6 MBq, 100 μL) and immediately frozen in OCT compound. The frozen tumor was cut into 10 µm thick sections using Cryotome and contacted with a phosphor screen in a cassette overnight. The screen was scanned using an Amersham Typhoon scanner (Cytiva), and the resulting images were analyzed using Image-Quant TL (Cytiva).
For immunohistochemistry, adjacent sections were fixed with cold acetone (− 20℃) for 10 min. After blocking using Blocking One Histo (Nacalai Tesque), the sections were incubated with antibodies against STAT3 (1:200 dilution, #4904) or pSTAT3(Tyr705) (1:200 dilution, #9145) overnight at 4℃. After a rinse, anti-rabbit IgG(H + L) CF555 (1:1000 dilution, SAB4600068, Sigma-Aldrich, St. Louis, MO, USA) was added, followed by incubation for 30 min at room temperature. Nuclear staining was performed by incubation with Hoechst 33,342 (Nacalai Tesque) for 10 min.

Setting [6] is: blocking group, coinjection of BP-1-102 3.0 mg/kg, 30 min.
[7] abbreviates: control group without BP-1-102, 30 min.

Values joined by “and” are separate entries in the source; they are usually repeats but may differ in a detail not shown here. Equal values may be shown once. Read-outs that look alike come from different tables or passages of the source.

Consider `CN(CC(=O)N(Cc1ccc(C2CCCCC2)cc1)c1ccc(C(=O)O)c(O)c1)S(=O)(=O)c1c(F)c(F)c(F)c(F)c1F` [BP-1–102], for which the Kd at SH2 domain of STAT3 (ref Zhang et al. [2012]) was 0.504 µM. Also, the “effect on tumor growth” value with A549 tumor-bearing mice [1] is reported as “inhibited tumor growth”.
Consider `CC1CC2=C(O1)c1ccc(OCc3ccc(F)cc3)cc1C(=O)C2=O` (stereo not shown) [FBNAF, 7-(4-Fluoro-benzyloxy)-2-methyl-2,3-dihydro-naphtho[1,2-b]furan-4,5-dione], for which the “change in total STAT3 expression” value in series [2] (0–2 μM) is on record as “no significant change”. Also, the “inhibition of pSTAT3 expression” value stood at 50% in [2] (0.5 μM) and 60% in [2] (1.0 μM).
For the compound `Cc1ccc(COc2ccc3c(c2)C(=O)C(=O)C2=C3OC(C)C2)cc1` (stereo not shown) [LYW-6], the Kd at SH2 domain of STAT3 (ref Wang et al. [2020]) is 6.6 µM. Besides, the IC50 was 3.8 µM in the series on RKO and 4.1 µM in the series with HCT116.
As to `CC1CC2=C(O1)c1ccc(OCc3ccc([18F])cc3)cc1C(=O)C2=O` (stereo not shown) [[^18F]FBNAF, 7-(4-[^18F]Fluoro-benzyloxy)-2-methyl-2,3-dihydro-naphtho[1,2-b]furan-4,5-dione], the “radioactivity in an intact form (intact rate)” value in series [3] was “more than 85%”. For the same compound, in the series with A549 tumor-bearing mice [4] (10 min after i.v. injection), the Blood radioactivity was found to be 1.0 ± 0.2 %ID/g, the Bone radioactivity is recorded as 2.1 ± 0.2 %ID/g, the Brain radioactivity was found to be 1.9 ± 1.1 %ID/g and the Colon radioactivity is 0.8 ± 0.4 %ID/g. In the series with A549 tumor-bearing mice [4] (10 min after i.v. injection), the Heart radioactivity turned out to be 2.3 ± 0.8 %ID/g, the Kidney radioactivity came out at 19.5 ± 7.7 %ID/g, the Liver radioactivity is on record as 10.8 ± 2.8 %ID/g and the Lung radioactivity was 4.4 ± 1.0 %ID/g. In addition, in the series with A549 tumor-bearing mice [4] (10 min after i.v. injection), the Muscle radioactivity was determined as 2.1 ± 0.8 %ID/g, the Pancreas radioactivity was found to be 6.3 ± 2.9 %ID/g, the Small intestine radioactivity is given as 11.6 ± 5.5 %ID/g and the Spleen radioactivity was 2.7 ± 0.7 %ID/g. For the same compound, in the series with A549 tumor-bearing mice [4] (10 min after i.v. injection), the Stomach radioactivity is 0.6 ± 0.3 %ID, the Tumor radioactivity was 1.5 ± 0.3 %ID/g, the Tumor/blood ratio turned out to be 1.6 ± 0.3 and the Tumor/muscle ratio was 0.8 ± 0.1. In the series on A549 tumor-bearing mice [4] (30 min after i.v. injection), the Blood radioactivity is on record as 1.0 ± 0.3 %ID/g, the Bone radioactivity is on record as 2.3 ± 0.6 %ID/g, the Brain radioactivity is 0.8 ± 0.1 %ID/g and the Colon radioactivity was found to be 0.7 ± 0.4 %ID/g. In the series with A549 tumor-bearing mice [4] (30 min after i.v. injection), the Heart radioactivity is 1.5 ± 0.7 %ID/g, the Kidney radioactivity came to 4.5 ± 1.2 %ID/g, the Liver radioactivity was determined as 5.3 ± 1.9 %ID/g and the Lung radioactivity is on record as 3.3 ± 2.0 %ID/g. In the series on A549 tumor-bearing mice [4] (30 min after i.v. injection), the Muscle radioactivity is 0.6 ± 0.1 %ID/g, the Pancreas radioactivity turned out to be 1.1 ± 0.3 %ID/g, the Small intestine radioactivity was 38.3 ± 5.7 %ID/g and the Spleen radioactivity amounted to 1.6 ± 0.5 %ID/g. Also, in the series on A549 tumor-bearing mice [4] (30 min after i.v. injection), the Stomach radioactivity came to 3.6 ± 2.8 %ID, the Tumor radioactivity worked out at 1.7 ± 0.4 %ID/g and the Tumor/blood ratio is 2.0 ± 1.0. Moreover, in the series on A549 tumor-bearing mice [4] (60 min after i.v. injection), the Blood radioactivity worked out at 0.5 ± 0.1 %ID/g, the Bone radioactivity is recorded as 1.5 ± 0.5 %ID/g, the Brain radioactivity is given as 0.5 ± 0.0 %ID/g and the Colon radioactivity is given as 11.0 ± 3.5 %ID/g. Moreover, in the series on A549 tumor-bearing mice [4] (60 min after i.v. injection), the Heart radioactivity stood at 0.7 ± 0.1 %ID/g, the Kidney radioactivity is given as 0.9 ± 0.3 %ID/g, the Liver radioactivity is 2.2 ± 0.3 %ID/g and the Lung radioactivity was found to be 1.2 ± 0.0 %ID/g. For the same compound, in the series with A549 tumor-bearing mice [4] (60 min after i.v. injection), the Muscle radioactivity came out at 0.5 ± 0.2 %ID/g, the Pancreas radioactivity was determined as 0.5 ± 0.1 %ID/g, the Small intestine radioactivity worked out at 48.4 ± 7.4 %ID/g and the Spleen radioactivity was determined as 0.9 ± 0.1 %ID/g. In the series on A549 tumor-bearing mice [4] (60 min after i.v. injection), the Stomach radioactivity is listed as 1.4 ± 1.4 %ID, the Tumor radioactivity amounted to 0.9 ± 0.3 %ID/g, the Tumor/blood ratio was determined as 2.0 ± 0.8 and the Tumor/muscle ratio was determined as 2.4 ± 1.2. Besides, in the series with A549 tumor-bearing mice [4] (120 min after i.v. injection), the Blood radioactivity is on record as 0.3 ± 0.0 %ID/g, the Bone radioactivity is on record as 1.9 ± 0.2 %ID/g, the Brain radioactivity worked out at 0.4 ± 0.1 %ID/g and the Colon radioactivity is 44.4 ± 16.3 %ID/g. For the same compound, in the series with A549 tumor-bearing mice [4] (120 min after i.v. injection), the Heart radioactivity worked out at 0.7 ± 0.2 %ID/g, the Kidney radioactivity stood at 0.5 ± 0.2 %ID/g, the Liver radioactivity is 1.6 ± 0.8 %ID/g and the Lung radioactivity was 1.0 ± 0.3 %ID/g. Besides, in the series on A549 tumor-bearing mice [4] (120 min after i.v. injection), the Muscle radioactivity is on record as 0.5 ± 0.1 %ID/g, the Pancreas radioactivity is reported as 0.6 ± 0.1 %ID/g, the Small intestine radioactivity stood at 17.8 ± 2.2 %ID/g and the Spleen radioactivity is reported as 0.8 ± 0.3 %ID/g. Also, in the series on A549 tumor-bearing mice [4] (120 min after i.v. injection), the Stomach radioactivity is 0.8 ± 1.0 %ID; the Tumor radioactivity is 0.9 ± 0.3 %ID/g; the Tumor/blood ratio is 2.6 and 2.6 ± 0.8; the Tumor/muscle ratio was 1.9 ± 0.9. In addition, in the series with A549 tumor-bearing mice [5] (setting [6]), the tumor-to-blood ratio was found to be 1.1 ± 0.3 and the tumor-to-muscle ratio is reported as 2.3 ± 1.2. Also, the Tumor radioactivity in the series on A549 tumor-bearing mice [5] (blocking group, coinjection of BP-1-102 3.0 mg/kg, 30 min after administration) is listed as 1.0 ± 0.3 % ID/g. Moreover, the “radioactivity in blood and muscle, effect of coinjection of the inhibitor” value in the series on A549 tumor-bearing mice [5] (coinjection of BP-1-102 3.0 mg/kg, 30 min) was “negligibly affected”. In the series with A549 tumor-bearing mice [5] (setting [7]), the tumor-to-blood ratio is listed as 2.0 ± 1.0 and the tumor-to-muscle ratio is 2.6 ± 0.3. For the same compound, the “intratumoral radioactivity distribution versus STAT3 expression” value on STAT3 was “almost corresponded to the STAT3 expression profile”.

The values above are taken from PMC11150212, “Synthesis and evaluation of [^18F]FBNAF, a STAT3-targeting probe, for PET imaging of tumor microenvironment” (EJNMMI Radiopharmacy and Chemistry, 2024).
